Test systems include HL-60; SK-MEL-2; RXF 393; OVCAR-4; NCI-H226; SNB-19; SN12C; CAKI-1; EKVX; SK-MEL-28; UACC-62; HCC 2998; DU-145; SK-OV-3; HT-29; CCRF-CEM; SF-295; BT-549; M14; SF-539.
Assay in all cases: NCI-60 cell line screen, 48 h

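Cells were grown in 96-well plates and exposed to each compound for 48 hours at five concentrations; endpoints were interpolated linearly between bracketing concentrations, or set to the highest concentration if not reached. Here, GI50 denotes the concentration required for 50% inhibition of growth.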 Activity calls are given as the source filed them. No stated cut-off is given here; in the data, active = GI50 up to about 1.1 µM and inactive = higher.

For the compound `CCOC(=O)CN1C(=O)c2c(NC(=O)C(=O)O)cccc2S1(=O)=O`, the GI50 with HL-60, in the experiment with SK-MEL-2, in the experiment on RXF 393, in the experiment with OVCAR-4, in the experiment with NCI-H226 and with SNB-19 was > 100 µM (inactive) each time. Moreover, the GI50 in the experiment on SN12C, in the experiment with CAKI-1, with EKVX, in the experiment on SK-MEL-28, with UACC-62 and in the experiment on HCC 2998 was > 100 µM (inactive) each time. Moreover, the GI50 in the experiment on DU-145, in the experiment on SK-OV-3, with HT-29, with CCRF-CEM, in the experiment with SF-295 and in the experiment with BT-549 was > 100 µM (inactive) throughout. In addition, the GI50 in the experiment on M14 is > 100 µM (inactive).
Regarding `O=[N+]([O-])c1ccc(S(=O)(=O)Cc2ccccc2)c2nonc12`, the GI50 in the experiment with HL-60 is 18.3 µM (inactive); in the experiment on SK-MEL-2 it was 19.3 µM (inactive); with RXF 393, 17.7 µM (inactive); with SF-539 it was 17.9 µM (inactive); with OVCAR-4, 17.3 µM (inactive); in the experiment on NCI-H226 it was > 100 µM (inactive). The GI50 in the experiment on SNB-19 was 37 µM (inactive); in the experiment on SN12C it was 13.9 µM (inactive); with CAKI-1, 20.1 µM (inactive); in the experiment with EKVX, 21.1 µM (inactive); in the experiment with SK-MEL-28 it was 20.5 µM (inactive); in the experiment on UACC-62 it was 17.8 µM (inactive). For the same compound, the GI50 in the experiment on DU-145 was 18.7 µM (inactive); with SK-OV-3 it was > 100 µM (inactive); with HT-29, 18.7 µM (inactive); in the experiment with CCRF-CEM it was 9.06 µM (inactive); with SF-295, > 100 µM (inactive); with BT-549 it was 18.5 µM (inactive). Besides, the GI50 in the experiment with M14 was 16.4 µM (inactive).
On to `COc1ccc(C2C3CCc4ccccc4C3=NN2S(=O)(=O)c2ccc(Cl)cc2)cc1` (stereo not given), for which the GI50 with HL-60 was 17.9 µM (inactive); in the experiment with SK-MEL-2, 28.4 µM (inactive); with RXF 393 it was 12.1 µM (inactive); in the experiment on SF-539, 18.3 µM (inactive); in the experiment with OVCAR-4, 30.3 µM (inactive); with NCI-H226, 20.7 µM (inactive). The GI50 with SNB-19 was 39.2 µM (inactive); with SN12C, 37 µM (inactive); in the experiment with CAKI-1, 16.2 µM (inactive); in the experiment with EKVX it was 35.7 µM (inactive); in the experiment on UACC-62, 13.1 µM (inactive); in the experiment with DU-145 it was 30 µM (inactive). Besides, the GI50 in the experiment on SK-OV-3 was 0.0995 µM (active); with HT-29 it was 18.1 µM (inactive); in the experiment on CCRF-CEM it was 17.9 µM (inactive); with SF-295, 18.2 µM (inactive); with BT-549 it was 44.7 µM (inactive); with M14, 18.3 µM (inactive).
As to `CNC(=O)Oc1ccc(-c2cn3cc(OC(=O)NC)ccc3n2)cc1`, the GI50 with SK-MEL-2 was > 100 µM (inactive); with RXF 393 it was 60 µM (inactive); in the experiment on SF-539, 27.6 µM (inactive); in the experiment on OVCAR-4, 51.1 µM (inactive); in the experiment on NCI-H226 it was > 100 µM (inactive); in the experiment on SNB-19 it was 43.3 µM (inactive). The GI50 in the experiment on SN12C is 42.8 µM (inactive); with CAKI-1, 34.1 µM (inactive); with EKVX, 96.4 µM (inactive); in the experiment with SK-MEL-28 it was 92.7 µM (inactive); in the experiment with UACC-62 it was 28.4 µM (inactive); with HCC 2998, 49.3 µM (inactive). The GI50 was 68.9 µM (inactive) in the experiment with DU-145; > 100 µM (inactive) in the experiment with SK-OV-3; 41.5 µM (inactive) in the experiment on HT-29; 17.9 µM (inactive) with CCRF-CEM; 64.6 µM (inactive) in the experiment with SF-295; > 100 µM (inactive) with BT-549. Besides, the GI50 in the experiment with M14 was 41.7 µM (inactive).
On to `O=NN1CCNC1Cc1ccccc1` (stereo not given), for which the GI50 is 37.6 µM (inactive) in the experiment with HL-60; 88.7 µM (inactive) with RXF 393; 48.9 µM (inactive) in the experiment on SF-539; > 100 µM (inactive) with OVCAR-4; > 100 µM (inactive) in the experiment on NCI-H226; 35.3 µM (inactive) in the experiment on SNB-19. The GI50 with SN12C was 63 µM (inactive); in the experiment on EKVX, > 100 µM (inactive); with SK-MEL-28, > 100 µM (inactive); in the experiment with UACC-62, 46.8 µM (inactive); with HCC 2998, > 100 µM (inactive); with DU-145 it was 50.9 µM (inactive). Moreover, the GI50 was 75.2 µM (inactive) in the experiment on SK-OV-3; > 100 µM (inactive) in the experiment on HT-29; 31.8 µM (inactive) in the experiment with CCRF-CEM; 49 µM (inactive) in the experiment with SF-295; > 100 µM (inactive) with BT-549; 41.6 µM (inactive) with M14.
`CCOC(=O)NC(Nc1ccc(C(=O)O)cc1)(C(F)(F)F)C(F)(F)F`: the GI50 was > 100 µM (inactive) with HL-60; > 100 µM (inactive) in the experiment with SK-MEL-2; 60.8 µM (inactive) in the experiment on RXF 393; > 100 µM (inactive) in the experiment with SF-539; > 100 µM (inactive) with NCI-H226; > 100 µM (inactive) in the experiment with SNB-19. Besides, the GI50 in the experiment on SN12C, in the experiment on CAKI-1, with EKVX, in the experiment on SK-MEL-28, with UACC-62 and with HCC 2998 was > 100 µM (inactive) each time. Further, the GI50 in the experiment on DU-145, in the experiment with SK-OV-3, in the experiment on HT-29, in the experiment with CCRF-CEM, in the experiment with SF-295 and with BT-549 was > 100 µM (inactive) throughout. In addition, the GI50 in the experiment with M14 was > 100 µM (inactive).
Turning to `O=C1c2ccccc2-c2nc(/C=C/c3ccccc3)cc3c2c1nc1ccccc13`, the GI50 was 21.6 µM (inactive) with SK-MEL-2; 29.2 µM (inactive) in the experiment on RXF 393; 27.4 µM (inactive) with SF-539; 68.7 µM (inactive) in the experiment with OVCAR-4; 69.2 µM (inactive) in the experiment on NCI-H226; 80.5 µM (inactive) in the experiment on SNB-19. The GI50 with SN12C is 33.2 µM (inactive); with CAKI-1, 26 µM (inactive); in the experiment on EKVX, 53.8 µM (inactive); with SK-MEL-28, 23.1 µM (inactive); in the experiment on UACC-62, 9.82 µM (inactive); in the experiment with HCC 2998, 20.4 µM (inactive). The GI50 in the experiment on DU-145 was 68.4 µM (inactive); in the experiment on SK-OV-3 it was 34.1 µM (inactive); with HT-29, 30.8 µM (inactive); in the experiment on CCRF-CEM it was 24.4 µM (inactive); with SF-295 it was 23 µM (inactive); in the experiment on BT-549, 36.8 µM (inactive). Further, in the experiment with M14, the GI50 is 26.2 µM (inactive).
For the compound `[O-][n+]1c(CN2CCCCC2)nc2cccc3c2c1-c1ccccc1-3`, the GI50 is > 100 µM (inactive) with HL-60; 23 µM (inactive) with SK-MEL-2; 13.7 µM (inactive) in the experiment with RXF 393; 23.9 µM (inactive) in the experiment with SF-539; 31.3 µM (inactive) in the experiment with OVCAR-4; 16.9 µM (inactive) in the experiment with NCI-H226. Also, the GI50 in the experiment on SNB-19 was 23.9 µM (inactive); in the experiment on SN12C it was 17.1 µM (inactive); in the experiment on CAKI-1, 25.4 µM (inactive); with EKVX, 18.4 µM (inactive); with SK-MEL-28, 68.5 µM (inactive); with UACC-62, 16.4 µM (inactive). Also, the GI50 was 15 µM (inactive) in the experiment with HCC 2998; 17.9 µM (inactive) in the experiment with DU-145; 26.1 µM (inactive) with SK-OV-3; 17.3 µM (inactive) in the experiment with HT-29; 28.7 µM (inactive) in the experiment with SF-295; 48.3 µM (inactive) in the experiment on BT-549. The GI50 in the experiment with M14 is 15.9 µM (inactive).
Consider `N#CC12C(=O)N3C(=NC(c4ccco4)NC3c3ccco3)C1(C#N)C(c1ccco1)NC1=C2CCCC1` (stereo not given), for which the GI50 in the experiment with HL-60, in the experiment with SK-MEL-2, in the experiment on RXF 393, with OVCAR-4, in the experiment on NCI-H226 and in the experiment on SNB-19 was > 100 µM (inactive) in each case. Besides, the GI50 in the experiment on SN12C, in the experiment with CAKI-1, with EKVX, in the experiment with SK-MEL-28, with UACC-62 and in the experiment with HCC 2998 was > 100 µM (inactive) in each case. Also, the GI50 in the experiment on DU-145, with SK-OV-3, in the experiment on HT-29, with SF-295, in the experiment on BT-549 and in the experiment with M14 was > 100 µM (inactive) each time.
As for `CNc1ccc2nc(-c3ccc(OC(=O)N(C)C)cc3)cn2c1`, the GI50 in the experiment on HL-60 is 22.5 µM (inactive); with SK-MEL-2, 14 µM (inactive); in the experiment with RXF 393, 13.3 µM (inactive); in the experiment with OVCAR-4, 17.5 µM (inactive); with NCI-H226, 20.8 µM (inactive); with SNB-19 it was 16.1 µM (inactive). The GI50 in the experiment on SN12C is 14.1 µM (inactive); with CAKI-1 it was 21.4 µM (inactive); with EKVX it was 19.3 µM (inactive); in the experiment on SK-MEL-28, 45.8 µM (inactive); with UACC-62, 18.8 µM (inactive); in the experiment with HCC 2998, 30.1 µM (inactive). Also, the GI50 in the experiment on DU-145 is 24.3 µM (inactive); with SK-OV-3, 19 µM (inactive); in the experiment on HT-29, 17.7 µM (inactive); with CCRF-CEM, 12.6 µM (inactive); in the experiment with SF-295, 17.7 µM (inactive); with BT-549, 17.8 µM (inactive). For the same compound, the GI50 with M14 is 19.2 µM (inactive).
`O=C1Oc2ccccc2N/C1=C/C(=O)c1ccc(Cl)cc1`: the GI50 with SK-MEL-2 is > 100 µM (inactive); in the experiment with RXF 393, > 100 µM (inactive); in the experiment on SF-539 it was 46.9 µM (inactive); in the experiment on OVCAR-4 it was > 100 µM (inactive); in the experiment on NCI-H226, > 100 µM (inactive); in the experiment on SNB-19, > 100 µM (inactive). In addition, the GI50 in the experiment with SN12C was > 100 µM (inactive); with CAKI-1 it was > 100 µM (inactive); in the experiment with EKVX, > 100 µM (inactive); in the experiment with UACC-62, 32.4 µM (inactive); with HCC 2998 it was 63.5 µM (inactive); with DU-145 it was > 100 µM (inactive). Besides, the GI50 is > 100 µM (inactive) in the experiment on SK-OV-3; > 100 µM (inactive) in the experiment on HT-29; 7.96 µM (inactive) with CCRF-CEM; 51.4 µM (inactive) with SF-295; > 100 µM (inactive) with BT-549; > 100 µM (inactive) with M14.

These data come from ChEMBL document CHEMBL1201862, “PubChem BioAssay data set” (2004).
